Article PMC4721062, “Oxadiazole-2-oxides may have other functional targets, in addition to SjTGR, through which they cause mortality in Schistosoma japonicum” (Parasites & Vectors, 2016)
Read-outs that look alike come from different tables or passages of the source.

Experiments:
adult S. japonicum = assay: microbe, parasite or virus in culture; format: cell-based; conditions: for killing at 25 µM / killing at 50 µM / killing at 100 µM / Killing activity 24hr / Killing activity 48hr / Killing activity 72hr: adult worms; for Killing activity 24hr / Killing activity 48hr / Killing activity 72hr: 10 μM
Method in brief: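 Adult worm pairs recovered by portal perfusion from ICR mice 35 days after infection with 50 cercariae, cultured in RPMI 1640 (pH 7.5, 20 mM HEPES, 10% FBS) at 37 °C, 5% CO2. Oxadiazole-2-oxides at 10, 25, 50, 100 μM; motility and survival scored microscopically at 24, 48, 72 h, death being no movement over 2 min; three independent experiments averaged.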

juvenile S. japonicum = assay: microbe, parasite or virus in culture; format: cell-based; conditions: for mortality at 50 µM / killing at 2 µM / killing at 5 µM / killing at 50 µM: Schistosoma japonicum; for mortality at 50 µM: read-out: Mortality of juvenile worms; for killing at 2 µM / killing at 5 µM / killing at 50 µM / Killing activity 24hr / Killing activity 48hr / Killing activity 72hr: juvenile worms; for Killing activity 24hr / Killing activity 48hr / Killing activity 72hr: 10 μM
Method in brief: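 Juvenile S. japonicum, 20–30 tail-shed cercariae per well, were exposed to compounds at 2, 5, 10 and 50 μM in RPMI 1640 with 10% FBS and HEPES. Survival was scored microscopically at 24, 48 and 72 h, with death defined by disrupted internal structure or tegument or 1 min without motility. % D is dead/total, averaged over three experiments.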

[1] = Schistosoma japonicum, 24 h, read-out: Mortality of adult worms
[2] = Schistosoma japonicum, 24 h, read-out: Killing activity 24hr
[3] = Schistosoma japonicum, 48 h, read-out: Killing activity 48hr
[4] = Schistosoma japonicum, 72 h, read-out: Killing activity 72hr
[5] = 24 h, read-out: Killing activity 24hr
[6] = 48 h, read-out: Killing activity 48hr
[7] = 72 h, read-out: Killing activity 72hr

SMILES	killing at 25 µM (adult S. japonicum; [2]) [%]	killing at 25 µM (adult S. japonicum; [3]) [%]	killing at 25 µM (adult S. japonicum; [4]) [%]	killing at 50 µM (adult S. japonicum; [2]) [%]	killing at 50 µM (adult S. japonicum; [3]) [%]	killing at 50 µM (adult S. japonicum; [4]) [%]	killing at 100 µM (adult S. japonicum; [2]) [%]	killing at 100 µM (adult S. japonicum; [3]) [%]	killing at 100 µM (adult S. japonicum; [4]) [%]	Killing activity 24hr (adult S. japonicum; 24 h)	Killing activity 48hr (adult S. japonicum; 48 h) [%D]	Killing activity 72hr (adult S. japonicum; 72 h) [%D]	killing at 2 µM (juvenile S. japonicum; [5]) [%]	killing at 2 µM (juvenile S. japonicum; [6]) [%]	killing at 2 µM (juvenile S. japonicum; [7]) [%]	killing at 5 µM (juvenile S. japonicum; [5]) [%]	killing at 5 µM (juvenile S. japonicum; [6]) [%]	killing at 5 µM (juvenile S. japonicum; [7]) [%]	killing at 50 µM (juvenile S. japonicum; [5]) [%]	killing at 50 µM (juvenile S. japonicum; [6]) [%]	also measured
Cc1ccc2cccc(OCc3ccc(-c4no[n+]([O-])c4C#N)cc3)c2n1 [Compound 28]	100	100	100	100	100	100	100	100	100	57.1%D	57.1	71.4	8.2	13.7	19.2	14.8	21.6	26.1	31.9	36.2	mortality at 25 µM (adult S. japonicum; [1]): > 75%; mortality at 50 µM (juvenile S. japonicum; 24 h): < 30%; killing at 50 µM (juvenile S. japonicum; [7]): 39.1%; Killing activity 24hr (juvenile S. japonicum; 24 h): 14.5%D; Killing activity 48hr (juvenile S. japonicum; 48 h): 17.4%D; Killing activity 72hr (juvenile S. japonicum; 72 h): 30.4%D
N#Cc1c(-c2ccc(O)cc2)no[n+]1[O-] [Compound 8]	50	66.7	100	77.8	88.9	100	100	100	100	n.e.	57.1	71.4	12	18	21	12.8	23	46.2	26.8	28.2	mortality at 10 µM (adult S. japonicum; Schistosoma japonicum, 72 h, read-out: Mortality of adult worms): 71.4 ± 0.9%; mortality at 50 µM (juvenile S. japonicum; 24 h): < 30%; killing at 50 µM (juvenile S. japonicum; [7]): 33.8%; Killing activity 24hr (juvenile S. japonicum; 24 h): 15.1%D; Killing activity 48hr (juvenile S. japonicum; 48 h): 23.3%D; Killing activity 72hr (juvenile S. japonicum; 72 h): 25.6%D
N#Cc1c(-c2ccc(OCc3ccccc3)cc2)no[n+]1[O-] [Compound 19]	100	100	100	100	100	100	100	100	100	80.0%D	100	100	15.1	15.1	17	12.5	19.2	28.8	82.5	92.8	mortality at 25 µM (adult S. japonicum; [1]): > 75%; killing at 50 µM (juvenile S. japonicum; [7]): 100%; Killing activity 24hr (juvenile S. japonicum; 24 h): 43.8%D; Killing activity 48hr (juvenile S. japonicum; 48 h): 50.0%D; Killing activity 72hr (juvenile S. japonicum; 72 h): 65.0%D
